How the values were obtained:
[1] = test system: Phytophthora infestans; format: in vivo; conditions: tomato, direct protectant foliar spray
[2] = test system: Pyricularia oryzae; format: in vivo; conditions: rice seedlings, direct therapeutic foliar spray, 600 ppm, 4-5 days
[3] = test system: Alternaria solani; test: Activity against tomato early blight (AS); format: in vivo; conditions: Table VI; tomato seedlings, contact prophylactic foliar spray, 4 days
How it was run: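 Foliar contact prophylactic spray on tomato seedlings (cv Outdoor Girl, second true leaf expanded) in acetone/water 50:50 with 0.04% Tween 20; 24 h at 20° C, 40% R.H., then inoculation with 10^4 spores/ml A. solani conidia. Kept moist at 21° C; lesion cover rated 4 days post-inoculation against untreated or diluent-sprayed controls.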

[4] = test system: Erysiphe graminis f.sp. hordei; test: Direct protectant activity against barley powdery mildew (EGP); format: in vivo; conditions: direct protectant foliar spray, 8 days
How it was run: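 Barley seedlings (cv Golden Promise, single-leaf stage) were foliar-sprayed, held 24 h at 18 °C/40% RH, then dusted with mildew conidia. After 8 days at 18 °C/40% RH, sporulating leaf area was scored as a rating against untreated or diluent-sprayed controls.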

[5] = test system: Erysiphe graminis f.sp. hordei; test: Activity against barley powdery mildew, direct therapeutic (EGT); format: in vivo; conditions: direct therapeutic foliar spray, 600 ppm, up to 7 days
How it was run: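 Barley seedlings (cv. Golden Promise, single-leaf stage) were dusted with mildew conidia one day before a therapeutic foliar spray of 600 ppm compound. Plants were kept at 18 °C and 40% humidity for up to 7 days, and sporulating leaf area was rated against untreated or diluent-sprayed controls.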

[6] = test system: Plasmopara viticola; test: Antisporulant activity against vine downy mildew (PVA); format: in vivo; conditions: vine leaves, antisporulant foliar spray, 600 ppm, 750 l/ha
How it was run: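 Cabernet Sauvignon vines (~8 cm) inoculated on lower leaf surfaces with 5×10^4 zoosporangia/ml, held 24 h at 21° C high humidity then 24 h glasshouse. Infected leaves sprayed underside with 600 ppm compound in 1:1 water/acetone, 0.04% Tween 20, 750 l/ha; 96 h glasshouse, 24 h humidity. Sporulating leaf area rated versus control.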

[7] = test system: Botrytis cinerea; test: Direct protectant activity against broad bean grey mould (BCB); format: in vivo; conditions: direct protectant foliar spray, 600 ppm, 4 days
How it was run: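 Broad bean plants (cv The Sutton, two leaf pairs) sprayed on upper leaf surfaces at 600 ppm, then inoculated 24 h later with 10^6 conidia/ml. Kept 4 days at 22 °C, high humidity; disease control rated from % leaf area with lesions against untreated or diluent controls.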

[8] = test system: Leptosphaeria nodorum; test: Activity against wheat leafspot (LN); format: in vivo; conditions: direct therapeutic foliar spray, 600 ppm, 6-8 days
How it was run: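 Wheat cv Norman at single-leaf stage spray-inoculated with 1.5×10^6 conidia/ml, held 24 h at high humidity, then sprayed therapeutically with test compound at 600 ppm. Kept 6-8 days at 22° C, 70% humidity; lesion density per leaf rated against untreated or diluent-sprayed controls.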

[9] = test system: Rhizoctonia solani; test: Activity against Rhizoctonia in-vitro (RSI); format: cell-based; conditions: 10 ppm, 10 days, 20° C., mycelial growth
How it was run: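 R. solani mycelial fragments (5×10^4/ml) in half-strength Potato Dextrose Broth with compound added from acetone to 10 ppm final. Mycelial growth assessed after 10 days at 20° C, rated against untreated or diluent control.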

[10] = test system: Venturia inaequalis; test: Activity against apple scab in-vitro (VII); format: cell-based; conditions: 10 ppm, 10 days, 20° C., mycelial growth
How it was run: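 Compound in acetone was tested at 10 ppm final in half-strength Potato Dextrose Broth inoculated with V. inaequalis mycelial fragments and spores at 5×10^4 propagules/ml. After 10 days at 20° C, mycelial growth was rated against untreated or diluent controls.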

[11] = test system: Pseudocercosporella herpotrichoides; test: Activity against wheat eyespot in-vitro (PHI); format: cell-based; conditions: 10 ppm, 10 days, 20° C., mycelial growth
How it was run: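 P. herpotrichoides mycelial fragments (5×10^4/ml) grown in half-strength PDB with compound at 10 ppm final, added from acetone. Incubated 10 days at 20 °C; mycelial growth rated against untreated or diluent controls.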

Compound	disease control rating PIP [1]	disease control rating PO [2]	disease control rating AS [3]	disease control rating EGP [4]	disease control rating EGT [5]	disease control rating PVA [6]	disease control rating BCB [7]	disease control rating LN [8]	disease control rating RSI [9]	disease control rating VII [10]	disease control rating PHI [11]
CN(C1CCCCC1)C1COC2(CCC(C(C)(C)C)CC2)C1 (centres unmarked) [Compound 80]	2 (greater than 80% disease control)	1 (about 50-80% disease control)	0 (less than 50% disease control)	2 (greater than 80% disease control)	2 (greater than 80% disease control)	0 (less than 50% disease control)	1 (about 50-80% disease control)	1 (about 50-80% disease control)	1 (about 50-80% disease control)	0 (less than 50% disease control)	0 (less than 50% disease control)
CC(C)(C)NC1COC2(CCC(C(C)(C)C)CC2)C1 (centres unmarked) [Compound 81]	2 (greater than 80% disease control)	0 (less than 50% disease control)	0 (less than 50% disease control)	2 (greater than 80% disease control)	2 (greater than 80% disease control)	0 (less than 50% disease control)	2 (greater than 80% disease control)	0 (less than 50% disease control)	0 (less than 50% disease control)	0 (less than 50% disease control)	0 (less than 50% disease control)
CC(C)(C)C1CCC2(CC1)CC(NCC1CCCCC1)CO2 (centres unmarked) [Compound 82]	0 (less than 50% disease control)	0 (less than 50% disease control)	0 (less than 50% disease control)	2 (greater than 80% disease control)	2 (greater than 80% disease control)	0 (less than 50% disease control)	2 (greater than 80% disease control)	1 (about 50-80% disease control)	0 (less than 50% disease control)	0 (less than 50% disease control)	0 (less than 50% disease control)
CCC(CC)NC1COC2(CCC(C(C)(C)C)CC2)C1 (centres unmarked) [Compound 83]	0 (less than 50% disease control)	0 (less than 50% disease control)	0 (less than 50% disease control)	2 (greater than 80% disease control)	2 (greater than 80% disease control)	0 (less than 50% disease control)	1 (about 50-80% disease control)	0 (less than 50% disease control)	0 (less than 50% disease control)	0 (less than 50% disease control)	0 (less than 50% disease control)
CCCCCCNC1CC2(CCC(C(C)(C)C)CC2)OC1C (centres unmarked) [Compound 84]	2 (greater than 80% disease control)	0 (less than 50% disease control)	0 (less than 50% disease control)	2 (greater than 80% disease control)	2 (greater than 80% disease control)	0 (less than 50% disease control)	0 (less than 50% disease control)	0 (less than 50% disease control)	1 (about 50-80% disease control)	1 (about 50-80% disease control)	0 (less than 50% disease control)
CC(C)(C)C1CCC2(CC1)CC(NC1CC3CCC1C3)CO2 (centres unmarked) [Compound 85]	2 (greater than 80% disease control)	0 (less than 50% disease control)	0 (less than 50% disease control)	2 (greater than 80% disease control)	2 (greater than 80% disease control)	0 (less than 50% disease control)	2 (greater than 80% disease control)	0 (less than 50% disease control)	0 (less than 50% disease control)	1 (about 50-80% disease control)	0 (less than 50% disease control)
CC(C)(C)C1CCC2(CC1)CC(NC1C3CC4CC(C3)CC1C4)CO2 (centres unmarked) [Compound 86]	2 (greater than 80% disease control)	0 (less than 50% disease control)	2 (greater than 80% disease control)	2 (greater than 80% disease control)	2 (greater than 80% disease control)	0 (less than 50% disease control)	0 (less than 50% disease control)	0 (less than 50% disease control)	0 (less than 50% disease control)	1 (about 50-80% disease control)	0 (less than 50% disease control)
CC1CCCCC1NC1COC2(CCC(C(C)(C)C)CC2)C1 (centres unmarked) [Compound 87]	2 (greater than 80% disease control)	0 (less than 50% disease control)	0 (less than 50% disease control)	2 (greater than 80% disease control)	2 (greater than 80% disease control)	0 (less than 50% disease control)	0 (less than 50% disease control)	0 (less than 50% disease control)	1 (about 50-80% disease control)	1 (about 50-80% disease control)	0 (less than 50% disease control)
CC1CCCC(NC2COC3(CCC(C(C)(C)C)CC3)C2)C1 (centres unmarked) [Compound 88]	2 (greater than 80% disease control)	0 (less than 50% disease control)	0 (less than 50% disease control)	2 (greater than 80% disease control)	2 (greater than 80% disease control)	0 (less than 50% disease control)	2 (greater than 80% disease control)	0 (less than 50% disease control)	1 (about 50-80% disease control)	1 (about 50-80% disease control)	0 (less than 50% disease control)
CC1CCC(NC2COC3(CCC(C(C)(C)C)CC3)C2)CC1 (centres unmarked) [Compound 89]	0 (less than 50% disease control)	0 (less than 50% disease control)	0 (less than 50% disease control)	2 (greater than 80% disease control)	2 (greater than 80% disease control)	1 (about 50-80% disease control)	0 (less than 50% disease control)	1 (about 50-80% disease control)	1 (about 50-80% disease control)	0 (less than 50% disease control)	0 (less than 50% disease control)

From patent publication US5591741A, “Fungicidal spiroheterocyclic derivatives” (American Cyanamid Company, priority 1993, dated 1997)
